Columns and labels:
[1] = molecular target: Vascular endothelial growth factor receptor 2 (Homo sapiens, UniProt P35968)
[2] = molecular target: Mitogen-activated protein kinase kinase kinase 4 (Homo sapiens, UniProt Q9Y6R4)
[3] = molecular target: T1, Serine/threonine-protein kinase 3 (Mus musculus, UniProt Q9JI10)
T1 sequence (Q9JI10 whole entry): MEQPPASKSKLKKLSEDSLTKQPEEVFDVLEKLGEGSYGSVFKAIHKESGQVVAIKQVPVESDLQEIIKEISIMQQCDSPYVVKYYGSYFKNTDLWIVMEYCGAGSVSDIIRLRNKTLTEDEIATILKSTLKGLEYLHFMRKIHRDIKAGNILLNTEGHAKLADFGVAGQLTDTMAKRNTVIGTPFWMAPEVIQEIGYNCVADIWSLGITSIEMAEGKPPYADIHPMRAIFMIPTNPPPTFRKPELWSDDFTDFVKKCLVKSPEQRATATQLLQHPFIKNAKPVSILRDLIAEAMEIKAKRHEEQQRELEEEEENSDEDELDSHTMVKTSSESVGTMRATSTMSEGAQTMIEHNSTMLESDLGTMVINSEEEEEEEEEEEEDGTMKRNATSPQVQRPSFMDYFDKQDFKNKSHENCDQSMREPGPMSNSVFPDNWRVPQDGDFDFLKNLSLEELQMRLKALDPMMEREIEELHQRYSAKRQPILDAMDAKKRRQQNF

[4] = molecular target: Calcium/calmodulin-dependent protein kinase kinase 2 (Homo sapiens, UniProt Q96RR4)
Calcium/calmodulin-dependent protein kinase kinase 2, sequence (Q96RR4 whole entry): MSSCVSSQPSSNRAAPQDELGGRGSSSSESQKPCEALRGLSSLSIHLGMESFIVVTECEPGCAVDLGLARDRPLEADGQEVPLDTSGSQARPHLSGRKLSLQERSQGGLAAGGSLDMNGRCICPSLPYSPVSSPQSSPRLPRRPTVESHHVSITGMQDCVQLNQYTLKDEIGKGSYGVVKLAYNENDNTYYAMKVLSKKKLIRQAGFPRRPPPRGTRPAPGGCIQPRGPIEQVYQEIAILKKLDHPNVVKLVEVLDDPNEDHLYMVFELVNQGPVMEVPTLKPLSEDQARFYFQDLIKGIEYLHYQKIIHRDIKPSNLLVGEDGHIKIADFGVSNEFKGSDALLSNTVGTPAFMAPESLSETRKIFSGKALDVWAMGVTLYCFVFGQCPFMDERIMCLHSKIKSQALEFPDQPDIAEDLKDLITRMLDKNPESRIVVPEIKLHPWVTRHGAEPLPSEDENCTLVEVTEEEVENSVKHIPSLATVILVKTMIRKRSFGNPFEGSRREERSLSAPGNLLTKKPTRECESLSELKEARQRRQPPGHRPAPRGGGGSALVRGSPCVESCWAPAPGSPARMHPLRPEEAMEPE

Ephrin type-A receptor 4 = Ephrin type-A receptor 4 (Homo sapiens, UniProt P54764)
Ephrin type-A receptor 3 = molecular target: T2, Ephrin type-A receptor 3 (Homo sapiens, UniProt P29320)
T2 sequence (P29320 whole entry): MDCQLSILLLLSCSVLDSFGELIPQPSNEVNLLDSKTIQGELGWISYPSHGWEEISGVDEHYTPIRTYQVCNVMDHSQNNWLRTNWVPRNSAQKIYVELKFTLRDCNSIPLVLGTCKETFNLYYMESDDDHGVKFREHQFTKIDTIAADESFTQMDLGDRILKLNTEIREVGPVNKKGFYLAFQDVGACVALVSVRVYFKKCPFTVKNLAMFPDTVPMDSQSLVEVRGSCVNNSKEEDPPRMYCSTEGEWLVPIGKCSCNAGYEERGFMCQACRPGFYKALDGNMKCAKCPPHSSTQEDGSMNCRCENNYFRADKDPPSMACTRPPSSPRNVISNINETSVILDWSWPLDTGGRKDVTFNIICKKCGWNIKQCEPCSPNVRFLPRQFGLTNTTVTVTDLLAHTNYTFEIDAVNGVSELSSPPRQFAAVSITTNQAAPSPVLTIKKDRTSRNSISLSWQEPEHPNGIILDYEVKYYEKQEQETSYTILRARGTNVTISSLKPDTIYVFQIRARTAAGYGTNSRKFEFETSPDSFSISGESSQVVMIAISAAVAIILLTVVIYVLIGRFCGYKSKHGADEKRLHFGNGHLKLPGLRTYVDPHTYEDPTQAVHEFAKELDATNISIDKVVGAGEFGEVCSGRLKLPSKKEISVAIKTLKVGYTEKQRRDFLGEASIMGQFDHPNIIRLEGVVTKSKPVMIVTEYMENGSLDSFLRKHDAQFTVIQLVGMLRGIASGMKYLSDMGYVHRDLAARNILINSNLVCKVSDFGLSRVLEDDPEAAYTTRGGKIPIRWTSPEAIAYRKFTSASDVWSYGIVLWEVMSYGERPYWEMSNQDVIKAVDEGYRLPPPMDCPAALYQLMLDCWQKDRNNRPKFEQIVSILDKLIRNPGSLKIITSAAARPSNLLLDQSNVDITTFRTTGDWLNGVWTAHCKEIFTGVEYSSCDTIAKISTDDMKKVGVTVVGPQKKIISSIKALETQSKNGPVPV

[5] = molecular target: Calcium/calmodulin-dependent protein kinase type II subunit delta (Homo sapiens, UniProt Q13557)
Calcium/calmodulin-dependent protein kinase type II subunit delta, sequence (Q13557 whole entry): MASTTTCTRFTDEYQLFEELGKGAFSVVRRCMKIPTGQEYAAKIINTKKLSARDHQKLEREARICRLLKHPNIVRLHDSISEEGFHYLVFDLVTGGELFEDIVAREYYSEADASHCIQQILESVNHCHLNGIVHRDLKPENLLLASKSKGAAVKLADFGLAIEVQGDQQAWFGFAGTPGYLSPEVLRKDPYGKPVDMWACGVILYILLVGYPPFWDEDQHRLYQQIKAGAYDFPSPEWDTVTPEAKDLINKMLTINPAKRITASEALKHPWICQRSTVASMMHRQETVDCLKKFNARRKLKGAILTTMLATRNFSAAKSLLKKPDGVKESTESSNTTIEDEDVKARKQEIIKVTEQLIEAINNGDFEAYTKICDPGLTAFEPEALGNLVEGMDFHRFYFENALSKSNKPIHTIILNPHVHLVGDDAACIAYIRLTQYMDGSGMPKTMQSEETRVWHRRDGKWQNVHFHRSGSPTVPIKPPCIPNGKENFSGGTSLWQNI

[6] = molecular target: Platelet-derived growth factor receptor beta (Homo sapiens, UniProt P09619)
Platelet-derived growth factor receptor beta, sequence (P09619 whole entry): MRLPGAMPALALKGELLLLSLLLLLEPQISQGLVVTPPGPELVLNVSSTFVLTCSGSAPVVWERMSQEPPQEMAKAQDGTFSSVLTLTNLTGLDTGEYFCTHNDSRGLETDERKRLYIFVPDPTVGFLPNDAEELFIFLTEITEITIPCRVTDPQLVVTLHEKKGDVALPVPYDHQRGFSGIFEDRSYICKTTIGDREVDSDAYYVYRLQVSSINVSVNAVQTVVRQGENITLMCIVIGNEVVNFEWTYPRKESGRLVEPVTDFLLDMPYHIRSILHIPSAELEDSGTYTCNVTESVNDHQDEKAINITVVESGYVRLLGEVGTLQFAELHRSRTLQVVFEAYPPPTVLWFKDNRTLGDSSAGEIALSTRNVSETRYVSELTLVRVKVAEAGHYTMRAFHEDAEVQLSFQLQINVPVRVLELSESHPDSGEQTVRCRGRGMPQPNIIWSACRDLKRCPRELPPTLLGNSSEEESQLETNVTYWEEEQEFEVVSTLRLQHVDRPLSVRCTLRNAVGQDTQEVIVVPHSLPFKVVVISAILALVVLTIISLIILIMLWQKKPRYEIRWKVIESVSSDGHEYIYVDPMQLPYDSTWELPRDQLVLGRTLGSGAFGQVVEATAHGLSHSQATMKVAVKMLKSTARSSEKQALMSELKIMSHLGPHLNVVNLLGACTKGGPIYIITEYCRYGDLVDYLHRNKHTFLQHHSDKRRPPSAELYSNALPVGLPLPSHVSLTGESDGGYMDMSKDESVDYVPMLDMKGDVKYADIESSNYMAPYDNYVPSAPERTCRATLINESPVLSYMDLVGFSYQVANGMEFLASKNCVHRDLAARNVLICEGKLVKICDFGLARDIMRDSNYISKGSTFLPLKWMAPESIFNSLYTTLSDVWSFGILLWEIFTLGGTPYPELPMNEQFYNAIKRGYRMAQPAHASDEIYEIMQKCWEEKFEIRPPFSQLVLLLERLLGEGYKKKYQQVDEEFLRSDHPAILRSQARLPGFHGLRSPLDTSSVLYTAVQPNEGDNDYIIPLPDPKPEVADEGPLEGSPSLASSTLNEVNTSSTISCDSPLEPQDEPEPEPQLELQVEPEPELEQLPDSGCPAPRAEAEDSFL

Ephrin type-A receptor 6 = molecular target: T3, Ephrin type-A receptor 6 (Homo sapiens, UniProt Q9UF33)
T3 sequence (Q9UF33 whole entry): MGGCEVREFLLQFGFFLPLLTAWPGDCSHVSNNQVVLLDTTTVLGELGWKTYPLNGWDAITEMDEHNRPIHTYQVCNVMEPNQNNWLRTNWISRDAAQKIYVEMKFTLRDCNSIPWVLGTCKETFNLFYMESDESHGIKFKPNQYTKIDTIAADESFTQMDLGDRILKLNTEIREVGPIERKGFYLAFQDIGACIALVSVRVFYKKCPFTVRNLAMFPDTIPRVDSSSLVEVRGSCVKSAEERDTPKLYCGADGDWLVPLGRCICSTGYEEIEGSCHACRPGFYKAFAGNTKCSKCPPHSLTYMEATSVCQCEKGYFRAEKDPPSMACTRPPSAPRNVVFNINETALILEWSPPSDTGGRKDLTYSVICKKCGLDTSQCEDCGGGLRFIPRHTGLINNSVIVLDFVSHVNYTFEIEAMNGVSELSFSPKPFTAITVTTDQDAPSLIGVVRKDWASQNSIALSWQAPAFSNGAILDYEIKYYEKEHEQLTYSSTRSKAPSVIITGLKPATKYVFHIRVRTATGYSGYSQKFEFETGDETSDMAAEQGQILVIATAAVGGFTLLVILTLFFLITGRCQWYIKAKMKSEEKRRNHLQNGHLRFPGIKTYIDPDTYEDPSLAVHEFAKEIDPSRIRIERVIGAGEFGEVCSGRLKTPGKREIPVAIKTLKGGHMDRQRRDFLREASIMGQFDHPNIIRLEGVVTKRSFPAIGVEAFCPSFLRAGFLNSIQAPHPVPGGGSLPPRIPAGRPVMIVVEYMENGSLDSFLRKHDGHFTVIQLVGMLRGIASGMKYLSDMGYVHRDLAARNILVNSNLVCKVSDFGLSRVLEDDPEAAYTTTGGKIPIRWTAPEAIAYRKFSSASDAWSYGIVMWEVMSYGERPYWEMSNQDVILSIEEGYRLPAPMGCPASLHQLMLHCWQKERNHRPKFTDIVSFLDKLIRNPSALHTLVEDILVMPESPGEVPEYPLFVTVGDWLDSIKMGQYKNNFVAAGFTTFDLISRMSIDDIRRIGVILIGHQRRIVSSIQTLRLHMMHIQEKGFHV

[7] = molecular target: AP2-associated protein kinase 1 (Homo sapiens, UniProt Q2M2I8)
[8] = molecular target: Receptor tyrosine-protein kinase erbB-2 (Homo sapiens, UniProt P04626)
Receptor tyrosine-protein kinase erbB-2, sequence (P04626 whole entry): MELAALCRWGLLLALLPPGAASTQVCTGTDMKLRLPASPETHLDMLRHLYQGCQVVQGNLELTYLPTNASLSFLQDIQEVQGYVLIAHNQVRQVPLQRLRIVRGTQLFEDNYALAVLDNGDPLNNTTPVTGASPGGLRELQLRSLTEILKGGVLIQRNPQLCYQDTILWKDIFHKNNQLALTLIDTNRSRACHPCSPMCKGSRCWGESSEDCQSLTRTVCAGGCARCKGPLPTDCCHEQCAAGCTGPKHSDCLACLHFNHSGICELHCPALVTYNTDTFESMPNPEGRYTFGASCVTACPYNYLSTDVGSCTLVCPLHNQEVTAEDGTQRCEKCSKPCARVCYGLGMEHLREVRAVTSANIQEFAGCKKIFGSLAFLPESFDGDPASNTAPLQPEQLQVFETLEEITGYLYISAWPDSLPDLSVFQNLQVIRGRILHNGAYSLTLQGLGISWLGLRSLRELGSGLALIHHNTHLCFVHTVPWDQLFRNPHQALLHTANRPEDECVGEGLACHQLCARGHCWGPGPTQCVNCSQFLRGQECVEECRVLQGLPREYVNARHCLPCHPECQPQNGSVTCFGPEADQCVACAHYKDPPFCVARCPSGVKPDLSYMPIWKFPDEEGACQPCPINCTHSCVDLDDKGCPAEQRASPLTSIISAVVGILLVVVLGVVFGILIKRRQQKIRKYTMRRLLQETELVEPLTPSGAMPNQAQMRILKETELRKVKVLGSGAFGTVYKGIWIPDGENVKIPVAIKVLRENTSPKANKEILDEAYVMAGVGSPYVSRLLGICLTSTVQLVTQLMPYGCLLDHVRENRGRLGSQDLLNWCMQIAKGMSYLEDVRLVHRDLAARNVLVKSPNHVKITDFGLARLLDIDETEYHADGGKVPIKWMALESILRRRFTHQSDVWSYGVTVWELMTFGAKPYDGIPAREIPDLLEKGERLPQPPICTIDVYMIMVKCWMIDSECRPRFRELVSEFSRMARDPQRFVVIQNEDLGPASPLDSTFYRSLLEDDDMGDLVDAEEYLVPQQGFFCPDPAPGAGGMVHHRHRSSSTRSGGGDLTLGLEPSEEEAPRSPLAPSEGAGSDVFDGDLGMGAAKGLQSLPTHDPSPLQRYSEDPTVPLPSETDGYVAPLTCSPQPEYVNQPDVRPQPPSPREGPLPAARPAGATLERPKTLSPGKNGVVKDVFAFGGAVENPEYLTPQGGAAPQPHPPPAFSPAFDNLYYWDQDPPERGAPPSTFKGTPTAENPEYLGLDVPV

Measured: Kd

Mitogen-activated protein kinase kinase kinase 4, sequence (Q9Y6R4 whole entry): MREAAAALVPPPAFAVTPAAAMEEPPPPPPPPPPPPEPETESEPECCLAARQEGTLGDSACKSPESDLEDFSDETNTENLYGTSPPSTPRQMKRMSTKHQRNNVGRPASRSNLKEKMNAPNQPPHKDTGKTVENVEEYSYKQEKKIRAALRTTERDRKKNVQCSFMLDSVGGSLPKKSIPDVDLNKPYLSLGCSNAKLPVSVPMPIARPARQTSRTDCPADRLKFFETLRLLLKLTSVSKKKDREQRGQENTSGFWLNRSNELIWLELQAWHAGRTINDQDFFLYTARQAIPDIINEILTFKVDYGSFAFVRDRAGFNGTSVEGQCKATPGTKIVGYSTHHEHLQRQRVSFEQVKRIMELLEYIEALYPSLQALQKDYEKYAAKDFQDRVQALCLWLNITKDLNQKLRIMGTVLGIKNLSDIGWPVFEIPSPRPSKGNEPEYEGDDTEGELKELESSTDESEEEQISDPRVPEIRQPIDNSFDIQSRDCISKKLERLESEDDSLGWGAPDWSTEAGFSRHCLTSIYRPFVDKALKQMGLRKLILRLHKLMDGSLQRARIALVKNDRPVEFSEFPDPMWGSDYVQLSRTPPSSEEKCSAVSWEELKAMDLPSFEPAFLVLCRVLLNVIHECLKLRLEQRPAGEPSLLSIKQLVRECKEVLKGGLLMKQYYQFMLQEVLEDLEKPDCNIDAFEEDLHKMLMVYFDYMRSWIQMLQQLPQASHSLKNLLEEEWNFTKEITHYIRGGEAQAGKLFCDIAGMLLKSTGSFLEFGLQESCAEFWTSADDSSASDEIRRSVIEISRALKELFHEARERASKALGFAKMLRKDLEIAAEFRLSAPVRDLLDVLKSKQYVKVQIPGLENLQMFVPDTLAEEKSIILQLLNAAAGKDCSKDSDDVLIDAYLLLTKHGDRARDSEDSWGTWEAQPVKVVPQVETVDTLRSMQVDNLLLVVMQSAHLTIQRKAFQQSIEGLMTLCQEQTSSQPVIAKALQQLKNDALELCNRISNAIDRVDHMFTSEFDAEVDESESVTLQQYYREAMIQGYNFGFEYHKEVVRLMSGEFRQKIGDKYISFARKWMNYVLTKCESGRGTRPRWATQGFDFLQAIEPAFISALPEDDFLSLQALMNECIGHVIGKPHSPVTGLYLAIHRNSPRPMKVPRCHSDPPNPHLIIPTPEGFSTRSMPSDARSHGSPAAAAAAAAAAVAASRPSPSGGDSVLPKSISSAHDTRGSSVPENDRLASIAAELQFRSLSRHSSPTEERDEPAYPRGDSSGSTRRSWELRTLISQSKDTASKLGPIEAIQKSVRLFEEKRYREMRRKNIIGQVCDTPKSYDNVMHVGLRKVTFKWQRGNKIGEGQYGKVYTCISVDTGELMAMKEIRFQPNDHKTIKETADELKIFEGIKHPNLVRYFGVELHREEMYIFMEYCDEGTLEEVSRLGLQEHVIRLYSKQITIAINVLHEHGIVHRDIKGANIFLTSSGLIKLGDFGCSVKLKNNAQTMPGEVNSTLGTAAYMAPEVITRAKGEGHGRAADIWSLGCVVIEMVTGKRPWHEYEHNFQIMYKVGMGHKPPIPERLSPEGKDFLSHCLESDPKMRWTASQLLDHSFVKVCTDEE

C#Cc1cccc(Nc2ncnc3cc(OCCOC)c(OCCOC)cc23)c1 [ERLOTINIB]
not listed: Ephrin type-A receptor 6 | [7] | [8]
Not Active: all other assays above

Cc1ccc(NC(=O)c2ccc(CN3CCN(C)CC3)cc2)cc1Nc1nccc(-c2cccnc2)n1 [IMATINIB]
not listed: [6]
Not Active: all other assays above

O=c1ncn2nc(Sc3ccc(F)cc3F)ccc2c1-c1c(Cl)cccc1Cl [NEFLAMAPIMOD]
not listed: [1] | Ephrin type-A receptor 4 | [6]
Not Active: all other assays above

CCOc1cc2ncc(C#N)c(Nc3ccc(F)c(Cl)c3)c2cc1NC(=O)/C=C/CN(C)C [PELITINIB]
Not Active: [1] | Ephrin type-A receptor 4 | [5] | [6]

Oc1ccc(-c2nc(-c3ccc(F)cc3)c(-c3ccncc3)[nH]2)cc1 [SB-202190]
Not Active: all assays above

C[S+]([O-])c1ccc(-c2nc(-c3ccc(F)cc3)c(-c3ccncc3)[nH]2)cc1 (centres undefined) [SB-203580]
Not Active: all assays above

CC[C@H](CO)Nc1nc(NCc2ccccc2)c2ncn(C(C)C)c2n1 [SELICICLIB]
Not Active: all assays above

Oc1c2ccccc2c2c3c(cccc13)N=N2 [SP-600125]
not listed: [3] | [4] | Ephrin type-A receptor 3 | [7]
Not Active: all other assays above

COc1cc2c(N3CCN(C(=O)Nc4ccc(OC(C)C)cc4)CC3)ncnc2cc1OCCCN1CCCCC1 [TANDUTINIB]
not listed: [1] | [6]
Not Active: all other assays above
